Experimental data as given in patent publication US20040242550A1, “Means and method for hormonal contraception” (priority 2001, published 2004).

Assay: conversion factors for progestogens: amount equivalent to a given amount of levonorgestrel
Settings: for equivalent to 30 μg levonorgestrel / equivalent to 750 μg levonorgestrel: estimated amount of progestogen; for Conversion factor: relative to levonorgestrel, for guidance, estimate
From the text: In order to determine for a specific biogenic estrogen or synthetic estrogen the amounts that are equivalent to a cited amount of ethinyl estradiol or 17beta-estradiol, the method described by Allen and Doisy may suitably be used (Allen A., Doisy E. A., “An ovarian hormone. Preliminary report on its localization, extraction and partial purification, and action in test animals. JAMA (1923), 81, 819-821). Similarly, in order to determine for a given progestogen the amount equivalent to cited amount of levonorgestrel the method originally described by McPhail can be used (Mc Phail M. K. “The assay of progestin” J Physiol (1934), 83, 145-156). A more recent description of this method can be found in an article written by Overbeek G. A., de Visser J. “A new substance with progestational activity”, Acta Endocrinol (1956), 22, 318-329. It is noted that the aforementioned methods will provide useful indications about the anticipated estrogen potency or progestogen potency of a particular hormone. However, to accurately determine the equivalent amounts that are referred to above, it is advisable to additionally conduct in vivo studies in human females.
For guidance the table below provides the conversion factors for a number of progestogens that may suitably be used in the method of the invention. These conversion factors may be used to calculate, for each progestogen mentioned in the table, an estimate of the amount of said progestogen which is equivalent to a given amount of levonorgestrel.

Row | Compound | equivalent to 30 μg levonorgestrel [µg] | equivalent to 750 μg levonorgestrel [mg] | Conversion factor
1 | C#C[C@]1(OC(C)=O)CC[C@H]2[C@@H]3CCC4=CC(=NO)CC[C@@H]4[C@H]3CC[C@@]21CC (mixture of isomers) [norgestimate] | 51 | 1.275 | 1.7
2 | C[C@]12CCC(=O)C=C1[C@@H]1C[C@@H]1[C@H]1[C@@H]3[C@@H]4C[C@@H]4[C@@]4(CCC(=O)O4)[C@@]3(C)CC[C@@H]12 [drospirenone] | 600 | 15 | 20
3 | CC(=O)[C@H]1CC[C@H]2[C@@H]3C=CC4=CC(=O)CC[C@@]4(C)[C@@H]3CC[C@]12C [dydrogesterone] | 4000 | 100 | 133
4 | C#C[C@]1(O)CC[C@H]2[C@@H]3CCC4=CC(=O)CC[C@@H]4[C@H]3CC[C@@]21C [norethisterone] | 210 | 5.25 | 7
